Data set [1] has as its system Reispflanzen (Varietät: Asahi). Particulars: in vivo.
Data set [2] relates to Brusone-Pilzes (Piricularia oryzae). It is filed as in vivo. Particulars: Wirkstoff-Konzentration 0,8 g/m^2 applied to the water surface; rice (Asahi) inoculated 4 days later; assessed 7 days after inoculation; three pots per test.

As for `CC1(CCl)C(CO)C1(Cl)Cl` (stereo not drawn) [Verbindung d. Erfindung, 2,2-Dichloro-(cis)-3-methyl-(trans)-3-chloromethylcyclopropanmethanol], the Phyto-toxizität result in data set [1] was “-”. In data set [2], the “Bekämpfungs-Index (%)” value amounted to 100%.
On the same counts, the results for `CC1(CCl)C(COC(=O)CCl)C1(Cl)Cl` [D-1, 2,2-Dichloro-(cis)-3-methyl-(trans)-3-chloromethylcyclopropanmethanol-chloroacetat] are “-” and 100%.

Source of the values: EP0135897A2 (priority 1983, dated 1985).
